Results published in PubChem BioAssay (NCI).
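How tested: cells in 96-well plates exposed to compound for 48 hours at five concentrations. GI50 = concentration required for 50% inhibition of growth. TGI: concentration producing complete growth inhibition.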

Tests used:
Assay in all cases: NCI-60 cell line screen, 48 h
[1] = test system: 786-0 renal
[2] = test system: A498 renal
[3] = test system: A549 NSCLC
[4] = test system: ACHN renal
[5] = test system: BT-549 breast
[6] = test system: CAKI-1 renal
[7] = test system: CCRF-CEM leukemia
[8] = test system: COLO 205 colon
[9] = test system: DU-145 prostate
[10] = test system: EKVX NSCLC
[11] = test system: HCC-2998 colon
[12] = test system: HCT-116 colon
[13] = test system: HCT-15 colon
[14] = test system: HL-60(TB) leukemia
[15] = test system: HOP-62 NSCLC
[16] = test system: HOP-92 NSCLC
[17] = test system: HS 578T breast
[18] = test system: HT29 colon
[19] = test system: IGROV1 ovarian
[20] = test system: K-562 leukemia
[21] = test system: KM12 colon
[22] = test system: LOX IMVI melanoma
[23] = test system: M14 melanoma
[24] = test system: MALME-3M melanoma
[25] = test system: MCF7 breast
[26] = test system: MDA-MB-231 breast
[27] = test system: MDA-MB-435
[28] = test system: MOLT-4 leukemia
[29] = test system: NCI-H226 lung
[30] = test system: NCI-H23 lung
[31] = test system: NCI-H460 lung
[32] = test system: NCI-H522 lung
[33] = test system: NCI/ADR-RES ovarian
[34] = test system: OVCAR-3 ovarian
[35] = test system: OVCAR-5 ovarian
[36] = test system: PC-3 prostate
[37] = test system: RPMI-8226 leukemia
[38] = test system: RXF 393 renal
[39] = test system: SF-268 CNS
[40] = test system: SF-295 CNS
[41] = test system: SF-539 CNS
[42] = test system: SK-MEL-2 melanoma
[43] = test system: SK-MEL-28 melanoma
[44] = test system: SK-MEL-5 melanoma
[45] = test system: SK-OV-3 ovarian
[46] = test system: SN12C renal
[47] = test system: SNB-19 CNS
[48] = test system: SNB-75 CNS
[49] = test system: SR leukemia
[50] = test system: SW-620 colon
[51] = test system: T-47D breast
[52] = test system: TK-10 renal
[53] = test system: U251 CNS
[54] = test system: UACC-257 melanoma
[55] = test system: UACC-62 melanoma
[56] = test system: UO-31 renal

`O=C(c1ccccc1)c1c(C(F)(F)F)n([O-])c2ccc(F)cc2[n+]1=O` showed a GI50 [1] of 1240 nM, a TGI [1] of 2520 nM and a GI50 [2] of 2380 nM. For the same molecule, the TGI [2] was 6040 nM, the GI50 [3] was 749 nM and the TGI [3] was 2970 nM. It also gave a GI50 [4] of 1090 nM, a TGI [4] of 2340 nM and a GI50 [5] of 252 nM. For the same molecule, the TGI [5] was 788 nM, the GI50 [6] was 1500 nM and the TGI [6] was 2850 nM. The GI50 [7] was 349 nM, the TGI [7] was over 100000 nM and the GI50 [8] was 383 nM. For the same molecule, the TGI [8] was 926 nM, the GI50 [9] was 1300 nM and the TGI [9] was 2570 nM. It also gave a GI50 [10] of 992 nM, a TGI [10] of 2440 nM and a GI50 [11] of 773 nM. It also gave a TGI [11] of 1900 nM, a GI50 [12] of 307 nM and a TGI [12] of 1020 nM. The GI50 [13] was 260 nM, the TGI [13] was 758 nM and the GI50 [14] was 188 nM. The TGI [14] was 869 nM, the GI50 [15] was 1340 nM and the TGI [15] was 2710 nM. It also gave a GI50 [16] of 211 nM, a TGI [16] of 394 nM and a GI50 [17] of 1440 nM. It also gave a TGI [17] of 5080 nM, a GI50 [18] of 502 nM and a TGI [18] of 1790 nM. For the same molecule, the GI50 [19] was 517 nM, the TGI [19] was 1980 nM and the GI50 [20] was 348 nM. For the same molecule, the TGI [20] was 1770 nM, the GI50 [21] was 872 nM and the TGI [21] was 2470 nM. The GI50 [22] was 167 nM, the TGI [22] was 317 nM and the GI50 [23] was 1280 nM. It also gave a TGI [23] of 2670 nM, a GI50 [24] of 1370 nM and a TGI [24] of 3040 nM. It also gave a GI50 [25] of 373 nM, a TGI [25] of 1670 nM and a GI50 [26] of 662 nM. It also gave a TGI [26] of 1630 nM, a GI50 [27] of 1300 nM and a TGI [27] of 2660 nM. It also gave a GI50 [28] of 362 nM, a TGI [28] of 1480 nM and a GI50 [29] of 1550 nM. It also gave a TGI [29] of 3020 nM, a GI50 [30] of 980 nM and a TGI [30] of 2590 nM. For the same molecule, the GI50 [31] was 663 nM, the TGI [31] was 2290 nM and the GI50 [32] was 911 nM. For the same molecule, the TGI [32] was 2590 nM, the GI50 [33] was 1780 nM and the TGI [33] was 4810 nM. It also gave a GI50 [34] of 501 nM, a TGI [34] of 1570 nM and a GI50 [35] of 1750 nM. The TGI [35] was 4130 nM, the GI50 [36] was 252 nM and the TGI [36] was 828 nM. It also gave a GI50 [37] of 551 nM, a TGI [37] of 1930 nM and a GI50 [38] of 434 nM. It also gave a TGI [38] of 1450 nM, a GI50 [39] of 945 nM and a TGI [39] of 2400 nM. It also gave a GI50 [40] of 1760 nM, a TGI [40] of 3480 nM and a GI50 [41] of 1440 nM. For the same molecule, the TGI [41] was 2880 nM, the GI50 [42] was 1470 nM and the TGI [42] was 3350 nM. It also gave a GI50 [43] of 1100 nM, a TGI [43] of 2320 nM and a GI50 [44] of 778 nM. For the same molecule, the TGI [44] was 2180 nM, the GI50 [45] was 1890 nM and the TGI [45] was 3390 nM. It also gave a GI50 [46] of 1020 nM, a TGI [46] of 2570 nM and a GI50 [47] of 1870 nM. The TGI [47] was 4010 nM, the GI50 [48] was 1360 nM and the TGI [48] was 2650 nM. For the same molecule, the GI50 [49] was 95.7 nM, the GI50 [50] was 147 nM and the TGI [50] was 306 nM. For the same molecule, the GI50 [51] was 655 nM, the TGI [51] was 2510 nM and the GI50 [52] was 1630 nM. For the same molecule, the TGI [52] was 3180 nM, the GI50 [53] was 1070 nM and the TGI [53] was 2260 nM. For the same molecule, the GI50 [54] was 1540 nM, the TGI [54] was 3230 nM and the GI50 [55] was 882 nM. For the same molecule, the TGI [55] was 2180 nM, the GI50 [56] was 1380 nM and the TGI [56] was 2740 nM.
